In ChEMBL document CHEMBL5030549, “Design, synthesis and biological evaluation of new thiazole scaffolds as potential TRPM8 antagonists” (Bioorg Med Chem Lett, 2021):
The source made the active and inactive calls. The calls are words filed in the database; no cut-off is given here.

Tests used:
[1] = Metabolic stability in human liver microsomes assessed as half life in presence of NADPH; assay type: ADME, Microsome
[2] = target: T1, Transient receptor potential cation channel subfamily M member 8 (Homo sapiens, UniProt Q7Z2W7); experiment: Antagonist activity at recombinant human TRPM8 transfected in HEK293 cells assessed as assessed as inhibition of icilin-induced intracellular calcium flux; assay type: cell-based
Target sequence in this assay (Q7Z2W7 whole entry): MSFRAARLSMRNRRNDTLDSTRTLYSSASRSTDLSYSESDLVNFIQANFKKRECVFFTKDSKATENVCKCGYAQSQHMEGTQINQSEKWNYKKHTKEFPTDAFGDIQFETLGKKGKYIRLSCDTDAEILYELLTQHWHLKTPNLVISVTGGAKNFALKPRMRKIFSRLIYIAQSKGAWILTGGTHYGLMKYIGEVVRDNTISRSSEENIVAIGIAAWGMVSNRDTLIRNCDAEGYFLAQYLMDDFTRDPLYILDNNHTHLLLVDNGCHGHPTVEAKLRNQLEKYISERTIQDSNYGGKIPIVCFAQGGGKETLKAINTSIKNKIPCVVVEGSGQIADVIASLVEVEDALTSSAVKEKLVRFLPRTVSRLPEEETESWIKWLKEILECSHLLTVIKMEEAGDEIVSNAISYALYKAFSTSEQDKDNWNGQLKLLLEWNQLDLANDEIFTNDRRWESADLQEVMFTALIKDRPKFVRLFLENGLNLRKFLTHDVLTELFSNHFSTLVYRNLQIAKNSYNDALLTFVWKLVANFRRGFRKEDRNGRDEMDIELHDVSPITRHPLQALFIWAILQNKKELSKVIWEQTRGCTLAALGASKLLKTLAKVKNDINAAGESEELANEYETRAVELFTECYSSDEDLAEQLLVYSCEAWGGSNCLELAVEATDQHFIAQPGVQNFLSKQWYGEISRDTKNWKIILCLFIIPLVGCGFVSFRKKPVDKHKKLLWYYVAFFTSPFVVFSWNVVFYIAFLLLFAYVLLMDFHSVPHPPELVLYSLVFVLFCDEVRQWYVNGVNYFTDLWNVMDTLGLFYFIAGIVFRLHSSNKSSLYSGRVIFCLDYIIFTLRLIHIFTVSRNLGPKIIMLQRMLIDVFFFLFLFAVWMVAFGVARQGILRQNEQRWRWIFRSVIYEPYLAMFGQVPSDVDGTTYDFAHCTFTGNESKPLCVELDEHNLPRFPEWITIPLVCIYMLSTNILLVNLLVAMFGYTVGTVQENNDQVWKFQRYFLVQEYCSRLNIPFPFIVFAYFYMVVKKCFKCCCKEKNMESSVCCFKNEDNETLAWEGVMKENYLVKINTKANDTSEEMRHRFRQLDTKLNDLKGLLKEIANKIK

[3] = target: Transient receptor potential cation channel subfamily V member 1 (Homo sapiens) (UniProt Q8NER1); experiment: Antagonist activity at human TRPV1 inhibition of capsaicin-induced channel activation at <= 30 uM; settings: dose microM <=30
[4] = target: T1, Transient receptor potential cation channel subfamily M member 8; experiment: Antagonist activity at recombinant human TRPM8 transfected in HEK293 cells assessed as assessed as inhibition of icilin-induced intracellular calcium flux at 0.5 uM relative to control; assay type: cell-based; settings: filed as antagonist
Target sequence in this assay (Q7Z2W7 whole entry, looked up): as the sequence (Q7Z2W7 whole entry) above

[5] = Metabolic stability in human liver microsomes assessed as intrinsic clearance in presence of NADPH; assay type: ADME, Microsome
[6] = test system: HepG2; experiment: Cytotoxicity against human HepG2 cells assessed as reduction in cell viability at 100 uM; assay type: cell-based; settings: hepg2, 100 µM

Chain of Transient receptor potential cation channel subfamily V member 1 (Homo sapiens) (Q8NER1 whole entry): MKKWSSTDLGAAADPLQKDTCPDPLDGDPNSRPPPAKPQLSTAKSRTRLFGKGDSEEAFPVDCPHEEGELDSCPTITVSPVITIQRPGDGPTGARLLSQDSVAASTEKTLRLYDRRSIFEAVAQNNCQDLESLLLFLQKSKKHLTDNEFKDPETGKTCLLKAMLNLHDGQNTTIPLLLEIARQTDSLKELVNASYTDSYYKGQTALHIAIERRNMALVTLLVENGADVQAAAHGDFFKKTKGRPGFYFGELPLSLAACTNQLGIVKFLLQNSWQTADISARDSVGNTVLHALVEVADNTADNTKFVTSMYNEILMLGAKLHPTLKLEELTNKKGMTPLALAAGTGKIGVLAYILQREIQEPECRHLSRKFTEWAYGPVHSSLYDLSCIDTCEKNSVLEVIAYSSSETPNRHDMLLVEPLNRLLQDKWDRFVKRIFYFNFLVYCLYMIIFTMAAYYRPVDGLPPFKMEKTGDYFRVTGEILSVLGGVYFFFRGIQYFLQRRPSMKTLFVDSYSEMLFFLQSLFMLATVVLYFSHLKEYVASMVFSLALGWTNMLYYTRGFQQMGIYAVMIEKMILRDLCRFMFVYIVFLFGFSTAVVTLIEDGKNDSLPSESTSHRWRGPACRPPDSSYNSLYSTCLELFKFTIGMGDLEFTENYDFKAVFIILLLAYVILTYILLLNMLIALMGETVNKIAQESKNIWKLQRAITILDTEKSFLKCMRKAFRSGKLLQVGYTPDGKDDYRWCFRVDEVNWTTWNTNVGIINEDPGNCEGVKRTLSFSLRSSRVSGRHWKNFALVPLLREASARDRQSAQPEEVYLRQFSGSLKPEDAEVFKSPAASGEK

| SMILES | Activity [3] | further results |
| --- | --- | --- |
| O=C(O)CCCc1cc2nc(-c3cccc(F)c3)sc2c(=O)o1 | inactive | – |
| COc1cc(CN(CCN)C(=O)c2cccs2)ccc1OCc1ccccc1 | – | inhibition [4]: 98.3% |
| CCOC(=O)c1sc(-c2cccc(F)c2)nc1C#CCCCC(=O)O | inactive | CLH [5]: 0.13 mL/min/g; IC50 [2]: 4060 nM; Activity [6]: Non-Toxic |
| O=C(O)CCCc1cc2nc(-c3cccc(F)c3)sc2c(=O)[nH]1 | inactive | – |

Continued, in another order:

| Activity [3] | SMILES | further results |
| --- | --- | --- |
| inactive | CCOC(=O)/C=C/Oc1nc(-c2ccc(C)cc2)sc1C(=O)OCC | half-life [1]: < 10 min; IC50 [2]: 1130 nM |
| inactive | CCOC(=O)CCCc1[nH]nnc1-c1nc(-c2cccc(F)c2)sc1C(=O)OCC | – |
| inactive | CCOC(=O)CCCC#Cc1nc(-c2cccc(F)c2)sc1C(=O)OCC | – |
